Consider 13 molecules from US20250129070A1, “BIFUNCTIONAL ANDROGEN RECEPTOR COMPOUNDS” (priority 2023, published 2025).

Experiment [1] concerns AR / CBP ternary complex. The experiment can be described thus: Ternary complex formation assay (sandwich ELISA, AR capture / CBP detection) in VCaP cell lysates. In kind it is cell-based. Conditions: 1.5 hours treatment, sandwich ELISA (AR capture, CBP or p300 detection). The method, boiled down:
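VCaP cells (50K/well, 5% charcoal-stripped FBS, ≥3 days) treated with bifunctional compound for 1.5 h, then lysed 30 min at 4 °C. AR captured on anti-AR (AR 441) plates; bound CBP or p300 detected by rabbit mAb plus HRP secondary. QuantaRed chemifluorescence read at ex 570/em 585, immediately and at 5 and 15 min.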
On the technique in general: In an ELISA, binding on a coated surface is turned into a signal by an enzyme label.

For experiment [2], the system named is VCaP cells. Description: VCaP growth inhibition assay. In kind it is cell-based. Conditions: 30 pM R1881, 9 days, CTG. As to the method:
VCaP cells (ATCC Cat #CRL-2876) are plated at 1×10^4 cells per well of a white plastic 96-well cluster plate (Thermo Scientific Nunc Cat #165306) in 100 uL phenol red-free DMEM (Gibco Cat #21063-029) media with 5% CSS (Omega Scientific Cat #FB-04). Cluster plates are returned to the incubator (37*C/5% CO2) for 72 hours prior to treatment. Just prior to treatment, 100 μL of phenol red-free DMEM/5% CSS and […] R1881 (Sigma Cat #R0908-10 mg) was added to each well of the cluster plates (Final R1881 concentration=30 pM). Compounds (200×) were added to each well in a volume of 1 uL, with serial dilutions (1:5) from 20 uM to 2 pM (final concentrations in well are 100 nM to 10 fM). Cluster plates are returned to the incubator for 9 days.
After the 9-day treatment period, media was removed from the cluster plates by inversion and 100 uL room temperature CTG reagent (Promega Cat #G7573) is added to each well. The cluster plates are placed on a shaker and incubated at room temperature for 20 minutes. Following this shaking/incubation, cluster plates are read on a luminometer (BMG ClarioStar). IC50 values are obtained by graphing the RLU data vs. compound concentration with nonlinear regression 4-parameter logistic curves (GraphPad Prism).

Bounds are passed on as bounds.

The EC50 is the concentration giving half of the maximal effect. Read a low EC50 as an effect from little substance. As a reminder, the IC50 is the midpoint of a concentration-inhibition curve. `CC(=O)N1CCc2c(c(N3CCCc4cc(-c5cnn(C)c5)c(C(F)F)cc43)nn2C2CCN(C3CCC4(CC3)CC(Oc3ncc(C(=O)NC5C(C)(C)C(Oc6ccc(C#N)c(Cl)c6)C5(C)C)cn3)C4)CC2)C1` (centres unmarked) [Compound 383, 2-[7-[4-[5-acetyl-3-[7-(difluoromethyl)-6-(1-methylpyrazol-4-yl)-3,4-dihydro-2H-quinolin-1-yl]-6,7-dihydro-4H-pyrazolo[4,3-c]pyridin-1-yl]-1-piperidyl]spiro[3.5]nonan-2-yl]oxy-N-[3-(3-chloro-4-cyano-phenoxy)-2,2,4,4-tetramethyl-cyclobutyl]pyrimidine-5-carboxamide] showed an EC50 in experiment [1] of under 1 nM. Moreover, the IC50 in experiment [2] lay within 0.1 to 1 nM.

The molecule `COc1cc(OC2C(C)(C)C(NC(=O)c3cnc(N4CCC(CN5CCC(n6nc(N7CCCc8cc(-c9cnn(C)c9)c(C(F)F)cc87)c7c6CCN(C(C)=O)C7)CC5)C5(CC5)C4)nc3)C2(C)C)ccc1C#N` (centres unmarked) [Compound 362, 2-[8-[[4-[5-acetyl-3-[7-(difluoromethyl)-6-(1-methylpyrazol-4-yl)-3,4-dihydro-2H-quinolin-1-yl]-6,7-dihydro-4H-pyrazolo[4,3-c]pyridin-1-yl]-1-piperidyl]methyl]-5-azaspiro[2.5]octan-5-yl]-N-[3-(4-cyano-3-methoxy-phenoxy)-2,2,4,4-tetramethyl-cyclobutyl]pyrimidine-5-carboxamide] came in with a concentration for a half-maximal effect (EC50) in experiment [1] of under 1 nM. In experiment [2], this molecule gave an IC50 of at most 0.1 nM.

`CC(=O)N1CCc2c(c(N3CCCc4cc(C#N)ccc43)nn2C2CCN(CC3CCN(c4ncc(C(=O)NC5C(C)(C)C(Oc6ccc(C#N)c(Cl)c6)C5(C)C)cn4)CC3)CC2)C1` (centres unmarked) [Compound 155, 2-[4-[[4-[5-acetyl-3-(6-cyano-3,4-dihydro-2H-quinolin-1-yl)-6,7-dihydro-4H-pyrazolo[4,3-c]pyridin-1-yl]-1-piperidyl]methyl]-1-piperidyl]-N-[3-(3-chloro-4-cyano-phenoxy)-2,2,4,4-tetramethyl-cyclobutyl]pyrimidine-5-carboxamide]: the EC50 in experiment [1] was under 1 nM. The molecule also came in with a 50% inhibitory concentration (IC50) in experiment [2] of 0.1 to 1 nM.

In experiment [1], `CC(=O)N1CCc2c(c(-c3cccc4cc(-c5ccc(CC6CC7(C6)CN(c6ncc(C(=O)NC8C(C)(C)C(Oc9ccc(C#N)c(Cl)c9)C8(C)C)cn6)C7)nc5)ncc34)nn2C2CCOCC2)C1` (centres unmarked) [Compound 228, 2-[6-[[5-[8-(5-acetyl-1-tetrahydropyran-4-yl-6,7-dihydro-4H-pyrazolo[4,3-c]pyridin-3-yl)-3-isoquinolyl]-2-pyridyl]methyl]-2-azaspiro[3.3]heptan-2-yl]-N-[3-(3-chloro-4-cyano-phenoxy)-2,2,4,4-tetramethyl-cyclobutyl]pyrimidine-5-carboxamide] had an EC50 of 1 to 10 nM. Moreover, in experiment [2], the IC50 lay within 0.1 to 1 nM.

On to `C[C@@H]1CC(=O)Nc2cccc(-c3ccc4c(c3)c(-c3cnn(C)c3)nn4CCCN3CCN(c4ncc(C(=O)NC5C(C)(C)C(Oc6ccc(C#N)c(Cl)c6)C5(C)C)cn4)CC3)c2N1` (stereo partly drawn) [Compound 55, N-[3-(3-chloro-4-cyano-phenoxy)-2,2,4,4-tetramethyl-cyclobutyl]-2-[4-[3-[5-[(4R)-4-methyl-2-oxo-1,3,4,5-tetrahydro-1,5-benzodiazepin-6-yl]-3-(1-methylpyrazol-4-yl)indazol-1-yl]propyl]piperazin-1-yl]pyrimidine-5-carboxamide], for which, in experiment [1], the EC50 was over 100 nM. Moreover, in experiment [2], the IC50 was over 100 nM.

Consider `CC(=O)N1CCc2c(c(N3CCCc4cc(-c5cnn(C)c5)c(C(F)F)cc43)nn2C2CC3(C2)CN(C(=O)C2CC4(C2)CN(c2ncc(C(=O)NC5C(C)(C)C(Oc6ccc(C#N)c(Cl)c6)C5(C)C)cn2)C4)C3)C1` (centres unmarked) [Compound 217, 2-[6-[6-[5-acetyl-3-[7-(difluoromethyl)-6-(1-methylpyrazol-4-yl)-3,4-dihydro-2H-quinolin-1-yl]-6,7-dihydro-4H-pyrazolo[4,3-c]pyridin-1-yl]-2-azaspiro[3.3]heptane-2-carbonyl]-2-azaspiro[3.3]heptan-2-yl]-N-[3-(3-chloro-4-cyano-phenoxy)-2,2,4,4-tetramethyl-cyclobutyl]pyrimidine-5-carboxamide], for which, in experiment [1], the concentration giving a half-maximal response (EC50) is under 1 nM. In experiment [2], the IC50 was in the range of 0.1 to 1 nM.

In experiment [1], `CC(=O)N1CCc2c(c(N3CCCc4cc(-c5cnn(C)c5)c(C(F)F)cc43)nn2C2CCN(C(C)COC3CCN(c4ncc(C(=O)NC5C(C)(C)C(Oc6ccc(C#N)c(Cl)c6)C5(C)C)cn4)CC3)CC2)C1` (centres unmarked) [Compound 169, 2-[4-[2-[4-[5-acetyl-3-[7-(difluoromethyl)-6-(1-methylpyrazol-4-yl)-3,4-dihydro-2H-quinolin-1-yl]-6,7-dihydro-4H-pyrazolo[4,3-c]pyridin-1-yl]-1-piperidyl]propoxy]-1-piperidyl]-N-[3-(3-chloro-4-cyano-phenoxy)-2,2,4,4-tetramethyl-cyclobutyl]pyrimidine-5-carboxamide] came in with an EC50 of under 1 nM. Moreover, the IC50 in experiment [2] was at most 0.1 nM.

As for `COc1cc(OC2C(C)(C)C(NC(=O)c3ccc(N4CCC5(CCC(n6cc(-c7cc8cccc(-c9nn(C%10CCOCC%10)c%10c9CN(C(C)=O)CC%10)c8cn7)cn6)CC5)CC4)cc3)C2(C)C)ccc1C#N` (centres unmarked) [Compound 269, 4-[9-[4-[8-(5-acetyl-1-tetrahydropyran-4-yl-6,7-dihydro-4H-pyrazolo[4,3-c]pyridin-3-yl)-3-isoquinolyl]pyrazol-1-yl]-3-azaspiro[5.5]undecan-3-yl]-N-[3-(4-cyano-3-methoxy-phenoxy)-2,2,4,4-tetramethyl-cyclobutyl]benzamide], the IC50 in experiment [2] lay within 0.1 to 1 nM.

Regarding `CC(=O)N1CCc2c(c(Nc3ccc(-c4cnn(C)c4)cc3F)nn2C2CCN(CC3CCN(c4ncc(C(=O)NC5C(C)(C)C(Oc6ccc(C#N)c(Cl)c6)C5(C)C)cn4)CC3)C2)C1` (centres unmarked) [Compound 7, 2-[4-[[3-[5-acetyl-3-[2-fluoro-4-(1-methylpyrazol-4-yl)anilino]-6,7-dihydro-4H-pyrazolo[4,3-c]pyridin-1-yl]pyrrolidin-1-yl]methyl]-1-piperidyl]-N-[3-(3-chloro-4-cyano-phenoxy)-2,2,4,4-tetramethyl-cyclobutyl]pyrimidine-5-carboxamide], the half-inhibitory concentration (IC50) in experiment [2] is 0.1 to 1 nM.

Turning to `CC(=O)N1CCc2c(c(N3CCCc4cc(-c5cnn(C)c5)c(C(F)F)cc43)nn2C2CCN(C3CCN(c4ccc5c(n4)CN(C4C(C)(C)C(Oc6ccc(C#N)c(Cl)c6)C4(C)C)C5=O)CC3)CC2)C1` (centres unmarked) [Compound 297, 4-[3-[2-[4-[4-[5-acetyl-3-[7-(difluoromethyl)-6-(1-methylpyrazol-4-yl)-3,4-dihydro-2H-quinolin-1-yl]-6,7-dihydro-4H-pyrazolo[4,3-c]pyridin-1-yl]-1-piperidyl]-1-piperidyl]-5-oxo-7H-pyrrolo[3,4-b]pyridin-6-yl]-2,2,4,4-tetramethyl-cyclobutoxy]-2-chloro-benzonitrile], in experiment [2], the IC50 was in the range of 1 to 100 nM.

The molecule `COc1cc(OC2C(C)(C)C(NC(=O)c3ccc(N4CCC(N5CCC6(CCC(n7nc(N8CCCc9cc(-c%10cnn(C)c%10)c(C(F)F)cc98)c8c7CCN(C(C)=O)C8)CC6)CC5)CC4)cc3)C2(C)C)ccc1C#N` (centres unmarked) [Compound 300, 4-[4-[9-[5-acetyl-3-[7-(difluoromethyl)-6-(1-methylpyrazol-4-yl)-3,4-dihydro-2H-quinolin-1-yl]-6,7-dihydro-4H-pyrazolo[4,3-c]pyridin-1-yl]-3-azaspiro[5.5]undecan-3-yl]-1-piperidyl]-N-[3-(4-cyano-3-methoxy-phenoxy)-2,2,4,4-tetramethyl-cyclobutyl]benzamide] returned an IC50 in experiment [2] of at most 0.1 nM.

Molecule `COc1cc(OC2C(C)(C)C(NC(=O)c3ccc(N4CC(N5CCC6(CCC(n7nc(N8CCCc9cc(-c%10cnn(C)c%10)c(C(F)F)cc98)c8c7CCN(C(C)=O)C8)CC6)CC5)C4)cc3)C2(C)C)ccc1C#N` (centres unmarked) [Compound 301, 4-[3-[9-[5-acetyl-3-[7-(difluoromethyl)-6-(1-methylpyrazol-4-yl)-3,4-dihydro-2H-quinolin-1-yl]-6,7-dihydro-4H-pyrazolo[4,3-c]pyridin-1-yl]-3-azaspiro[5.5]undecan-3-yl]azetidin-1-yl]-N-[3-(4-cyano-3-methoxy-phenoxy)-2,2,4,4-tetramethyl-cyclobutyl]benzamide] registered a concentration for half-maximal inhibition (IC50) in experiment [2] of at most 0.1 nM.

Take `CC(=O)N1CCc2c(c(Nc3ccc(-c4cnn(C)c4)cc3F)nn2CCOC2CCN(c3ncc(C(=O)NC4C(C)(C)C(Oc5ccc(C#N)c(Cl)c5)C4(C)C)cn3)CC2)C1` (centres unmarked) [Compound 2, 2-[4-[2-[5-acetyl-3-[2-fluoro-4-(1-methylpyrazol-4-yl)anilino]-6,7-dihydro-4H-pyrazolo[4,3-c]pyridin-1-yl]ethoxy]-1-piperidyl]-N-[3-(3-chloro-4-cyano-phenoxy)-2,2,4,4-tetramethyl-cyclobutyl]pyrimidine-5-carboxamide]: the half-inhibitory concentration (IC50) in experiment [2] was in the range of 1 to 100 nM.
